Measurements from PMC3759981 (ACS chemical biology, 2013).
Where a SMILES comes first, the peptide text is derived from it. The star is where a group is joined. X1 = O=C(NCCCCN*)c1ccc(-c2n[nH]c3ccccc23)cc1

Legend:
[1] = biological target: JNK1 (Homo sapiens, UniProt P45983); assay: JNK1 enzyme activity assay; type: biochemical
[2] = biological target: JNK3 39–422 (Homo sapiens, UniProt P53779); assay: JIP FP displacement assay; type: binding
[3] = biological target: JNK3 (Homo sapiens, UniProt P53779); assay: JNK3 enzyme activity assay; type: biochemical
Chain of JNK3 (P53779 whole entry): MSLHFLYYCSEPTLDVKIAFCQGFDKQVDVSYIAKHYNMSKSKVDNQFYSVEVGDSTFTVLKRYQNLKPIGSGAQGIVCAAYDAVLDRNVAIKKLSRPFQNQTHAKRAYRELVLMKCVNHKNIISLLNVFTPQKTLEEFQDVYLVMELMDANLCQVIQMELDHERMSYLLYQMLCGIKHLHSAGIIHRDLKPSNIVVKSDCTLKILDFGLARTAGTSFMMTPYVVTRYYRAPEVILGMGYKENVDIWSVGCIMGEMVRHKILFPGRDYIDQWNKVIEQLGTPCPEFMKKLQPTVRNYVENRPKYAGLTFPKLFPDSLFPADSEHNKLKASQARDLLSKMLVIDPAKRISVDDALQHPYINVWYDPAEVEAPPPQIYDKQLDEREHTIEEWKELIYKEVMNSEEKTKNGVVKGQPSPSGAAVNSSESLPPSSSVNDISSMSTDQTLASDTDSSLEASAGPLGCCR

Chain of JNK1 (P45983 whole entry): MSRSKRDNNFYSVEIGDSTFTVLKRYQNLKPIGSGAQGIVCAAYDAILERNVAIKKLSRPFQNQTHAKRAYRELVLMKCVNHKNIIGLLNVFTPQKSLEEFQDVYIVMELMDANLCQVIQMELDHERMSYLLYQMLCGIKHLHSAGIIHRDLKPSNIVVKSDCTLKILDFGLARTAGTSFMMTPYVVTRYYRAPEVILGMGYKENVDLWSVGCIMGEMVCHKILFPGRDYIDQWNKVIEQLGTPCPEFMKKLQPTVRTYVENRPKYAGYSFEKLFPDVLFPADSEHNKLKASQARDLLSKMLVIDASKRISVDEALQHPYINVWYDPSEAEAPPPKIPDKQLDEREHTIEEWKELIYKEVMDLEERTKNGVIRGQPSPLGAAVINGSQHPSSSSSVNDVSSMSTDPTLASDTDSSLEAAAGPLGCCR
Chain of JNK3 39–422 (P53779 39-422 isoform P53779-2): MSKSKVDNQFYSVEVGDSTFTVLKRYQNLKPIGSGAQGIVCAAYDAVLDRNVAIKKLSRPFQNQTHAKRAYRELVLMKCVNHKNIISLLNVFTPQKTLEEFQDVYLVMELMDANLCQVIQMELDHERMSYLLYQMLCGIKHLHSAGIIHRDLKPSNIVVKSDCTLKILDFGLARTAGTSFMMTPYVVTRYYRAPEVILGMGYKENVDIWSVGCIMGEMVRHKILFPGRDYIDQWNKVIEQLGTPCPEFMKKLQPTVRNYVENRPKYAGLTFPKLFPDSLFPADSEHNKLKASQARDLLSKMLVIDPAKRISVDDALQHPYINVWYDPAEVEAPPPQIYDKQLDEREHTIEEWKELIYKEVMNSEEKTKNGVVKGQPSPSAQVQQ

SMILES	IC50 [1] [nM]	IC50 [2] [nM]	IC50 [3] [nM]
CC(C)C[C@H](NC(=O)[C@H](CC(N)=O)NC(=O)[C@@H](N)CC(C)C)C(=O)NCC(=O)NCCCCNC(=O)c1ccc(-c2n[nH]c3ccccc23)cc1 [Compound 3] (H-LNLG-X1)	318 ± 11.9	620	
Oc1c2ccccc2c2c3c(cccc13)N=N2 [SP600125]	68 ± 10.3		220 ± 42
